Source: publication PMC3391680, “Selective and Specific Inhibition of the Plasmodium falciparum Lysyl-tRNA Synthetase by the Fungal Secondary Metabolite Cladosporin” (Cell Host & Microbe, 2012)
Where two headings read alike, the source gives them in different places. *1 amine or outer side, *2 acyl side, *3 side chain or, on linkers, in order; H or OH if unused. Where a SMILES comes first, the peptide text is derived from it. [ ]: non-standard residue; d: D form. X1 = CC(C)([C@@H]1CO1)n1cc([C@@H](O)[C@H](CC(=O)[*:2])N[*:1])c2ccccc21; NMeLeu(5-OH,4R) = CN[C@@H](C[C@@H](C)CO)C(=O)O; Nle(4R-Me-5-ene) = C=C[C@H](C)C[C@H](N)C(=O)O; Phe(βR-OMe) = CO[C@H](c1ccccc1)[C@H](N)C(=O)O; NMeL = CN[C@@H](CC(C)C)C(=O)O

What was measured:
[1] = system: T1, Plasmodium falciparum Dd2; experiment: microbe, parasite or virus in culture; set-up: species or system Plasmodium falciparum Dd2 in human erythrocytes; Asexual blood-stage parasite proliferation, SYBR Green I DNA fluorescence; details: DD2, Erythrocyte, 72 h, read-out: IC50 values (nM)
T1 construct: Dd2
Protocol: Powershot G10 camera attached to the microscope and imported in Adobe Photoshop and Illustrator for image sizing and figure generation, respectively. SYBR Green cell proliferation assay. Compounds were tested for activity against asexual blood stage parasites using a previously described screening method (Plouffe et al., 2008). […] Toxoplasma gondii culturing and assay methods. The tachyzoite stage of Toxoplasma gondii (RH1, GFP-luc) was maintained by serial passage in human foreskin fibroblasts (HFF) cultured in Hank’s Buffered Salt Solution (HBSS) supplemented with 10% FBS, 2 mM L-glutamine, and 100 μg penicillin/100 μg streptomycin per milliliter maintained at 37 °C and 5% CO2. Parasites were harvested for use in assays by syringe lysis of infected HFF monolayers. Parasites were then centrifuged at 1,200 × g for 6 min and resuspended in HBSS supplemented with 10 mM Hepes, pH 7.0, and 1% (v/v) dialyzed FBS. All buffers were filter sterilized by passage through a […] Millipore Syringe Filter. Approximately 50,000 parasites and 5,000 HFF cell were incubated with compounds for 48 hours at 37 °C. Parasite and host cell proliferation rates were then determined using Bright-Glo® and CellTiter-Glo® (Promega). Maintenance, synchronization and imaging of erythrocytic stage P. falciparum cultures. A clonal stock of the P. falciparum line Dd2 (parental clone) was established by limiting dilution from a Dd2 isolate (MRA-156) obtained from the Malaria Research and Reference Reagent Resource Center (MR4; American Type Culture Collection), and used throughout these studies. All P. falciparum parasites were cultured in human erythrocytes and complete culturing media (CM) as previously described (Dharia et al., 2009). Highly synchronous cultures were achieved using the sorbitol synchronization method (Lambros and Vanderberg, 1979). Visualization of parasites were performed on Giemsa-stained thin blood smears under a 100x oil immersion objective on a Zeiss Primo Star light microscope. Digital images were captured using a Canon

[2] = system: T2, Saccharomyces cerevisiae BY4743Δ8; experiment: microbe, parasite or virus in culture; set-up: Yeast growth inhibition, optical density at 600 nm, dose response; details: synthetic media, no added lysine, read-out: Cladosporin IC50 (µM) Synthetic media
T2 construct: BY4743Δ8 (eight drug-resistance genes deleted: SNQ2, PDR5, YOR1, PDR1, PDR2, PDR3, YAP1, YRM1)
Protocol: SUPPLEMENTAL FIGURES Figure S1 | Cladosporin inhibition of S. cerevisiae wild type strain BY4743 and a drug efflux mutant strain BY4743Δ8, related to Figure 1. Yeast growth in the presence of cladosporin was measured by optical density at 600 nm (OD600) and the 30% inhibitory concentration (IC30) and 50% inhibitory concentration (IC50) of cell growth were determined. […] Data were collected from duplicate experiments, normalized with a DMSO control and expressed as the means±SD. A logistic regression curve fit algorithm on the recorded OD600 values was performed to determine the aforementioned IC30 and IC50 values. Strain BY4743Δ8, derived from BY4741 but deleted for eight genes involved in drug resistance (efflux pumps, SNQ2, PDR5, YOR1; transcription factors, PDR1, PDR2, PDR3, YAP1, YRM1) was incubated in 2.5% ethylmethanesulfonate until only 50% of the cells formed colonies. A total of 2 × 10^7 mutagenized CMB970 cells were plated on two 14 cm dishes with synthetic complete medium (0.7 g/l Difco Yeast Nitrogen Base without amino acids, 0.79 g/l MPbio CSM amino acid mixture, 2% glucose) containing 50 μM cladosporin. After 4 days, 37 resistant colonies appeared. […] Of these 37, ten colonies contained nonsynonymous mutations in the KRS1 open reading frame. […] Curves were calculated by taking the 16 hr OD600 measurements and applying a logistic regression curve fit. […]

[3] = target: T3, human lysyl-tRNA synthetase (human Krs1) (Homo sapiens, UniProt Q15046); experiment: Transcreener AMP fluorescence polarization aminoacylation assay with recombinant enzyme; weak inhibition; format: biochemical
T3 construct: gene KARS1; purified recombinant human enzyme (Origene TP300311)
T3 sequence (Q15046 2-597): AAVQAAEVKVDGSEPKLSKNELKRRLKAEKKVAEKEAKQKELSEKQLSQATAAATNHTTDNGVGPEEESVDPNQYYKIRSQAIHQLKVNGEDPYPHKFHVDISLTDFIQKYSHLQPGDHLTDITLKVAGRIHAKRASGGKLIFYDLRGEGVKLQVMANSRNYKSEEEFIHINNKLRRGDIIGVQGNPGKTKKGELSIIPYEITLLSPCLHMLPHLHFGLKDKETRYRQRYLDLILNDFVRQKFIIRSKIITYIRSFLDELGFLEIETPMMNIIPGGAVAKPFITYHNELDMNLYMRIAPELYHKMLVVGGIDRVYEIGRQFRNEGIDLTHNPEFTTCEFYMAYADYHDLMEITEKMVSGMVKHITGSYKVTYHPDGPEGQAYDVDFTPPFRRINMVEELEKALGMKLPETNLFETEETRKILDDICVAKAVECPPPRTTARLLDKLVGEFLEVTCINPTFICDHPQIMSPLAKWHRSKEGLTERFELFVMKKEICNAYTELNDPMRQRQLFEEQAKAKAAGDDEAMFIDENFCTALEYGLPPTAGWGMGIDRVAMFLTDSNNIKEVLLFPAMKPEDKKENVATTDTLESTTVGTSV

[4] = target: T4, P. falciparum cytosolic lysyl-tRNA synthetase (PfKrs1) (Plasmodium falciparum, UniProt Q8IDJ8); experiment: Transcreener AMP fluorescence polarization aminoacylation assay with recombinant enzyme; format: biochemical
T4 construct: gene PF3D7_1350100; recombinant PF13_0262, codon-optimized, in pET-28a(+), expressed in E. coli and purified
T4 sequence (Q8IDJ8 entry or part of it): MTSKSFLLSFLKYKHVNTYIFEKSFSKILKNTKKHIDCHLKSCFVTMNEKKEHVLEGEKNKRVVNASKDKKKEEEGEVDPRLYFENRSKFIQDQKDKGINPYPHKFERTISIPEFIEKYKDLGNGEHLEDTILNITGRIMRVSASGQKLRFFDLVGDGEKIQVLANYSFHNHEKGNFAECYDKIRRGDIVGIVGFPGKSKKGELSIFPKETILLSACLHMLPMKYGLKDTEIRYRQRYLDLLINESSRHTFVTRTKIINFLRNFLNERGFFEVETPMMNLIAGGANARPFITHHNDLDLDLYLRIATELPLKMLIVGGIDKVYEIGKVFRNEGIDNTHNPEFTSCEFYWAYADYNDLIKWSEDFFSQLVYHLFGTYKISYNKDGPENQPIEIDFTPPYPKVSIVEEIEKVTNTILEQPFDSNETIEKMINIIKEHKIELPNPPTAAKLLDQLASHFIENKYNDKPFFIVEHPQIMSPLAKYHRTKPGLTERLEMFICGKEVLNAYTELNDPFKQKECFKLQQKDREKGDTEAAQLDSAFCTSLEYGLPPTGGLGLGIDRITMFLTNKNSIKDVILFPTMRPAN

[5] = system: T2, Saccharomyces cerevisiae BY4743Δ8; experiment: microbe, parasite or virus in culture; set-up: Yeast growth inhibition, optical density at 600 nm, dose response; details: rich media, no added lysine, read-out: Cladosporin IC50 (µM) Rich media
Protocol: SUPPLEMENTAL FIGURES Figure S1 | Cladosporin inhibition of S. cerevisiae wild type strain BY4743 and a drug efflux mutant strain BY4743Δ8, related to Figure 1. Yeast growth in the presence of cladosporin was measured by optical density at 600 nm (OD600) and the 30% inhibitory concentration (IC30) and 50% inhibitory concentration (IC50) of cell growth were determined. Assay plates seeded with the respective strains were grown in rich medium and incubated […] against a 12-point dilution series of cladosporin (0-200 µM). Data were collected from duplicate experiments, normalized with a DMSO control and expressed as the means±SD. A logistic regression curve fit algorithm on the recorded OD600 values was performed to determine the aforementioned IC30 and IC50 values. Strain BY4743Δ8, derived from BY4741 but deleted for eight genes involved in drug resistance (efflux pumps, SNQ2, PDR5, YOR1; transcription factors, PDR1, PDR2, PDR3, YAP1, YRM1) was incubated in 2.5% ethylmethanesulfonate until only 50% of the cells formed colonies. […] Of these 37, ten colonies contained nonsynonymous mutations in the KRS1 open reading frame. […] Curves were calculated by taking the 16 hr OD600 measurements and applying a logistic regression curve fit. […]

O[C@@H](c1cc(C(F)(F)F)nc2c(C(F)(F)F)cccc12)[C@H]1CCCCN1 (racemic) [MFQ, mefloquine]
IC50 [1]: 9 nM

O=C1C(O)=C([C@H]2CC[C@H](c3ccc(Cl)cc3)CC2)C(=O)c2ccccc21 [ATQ, atovaquone]
IC50 [1]: 0.8 ± 0.2 nM

C=C[C@H](C)C[C@@H]1NC(=O)[C@H](CC(C)C)N(C)C(=O)[C@H](C(C)C)NC(=O)[C@H]([C@H](OC)c2ccccc2)NC(=O)[C@H](C)NC(=O)[C@H](C[C@@H](C)CO)N(C)C(=O)C[C@@H]([C@H](O)c2cn(C(C)(C)[C@@H]3CO3)c3ccccc23)NC1=O [CycA, cyclomarin A] (cyclo(A[Phe(βR-OMe)]V[NMeL][Nle(4R-Me-5-ene)][X1][NMeLeu(5-OH,4R)]))
IC50 [1]: 48.8 ± 10.1 nM

CCc1nc(N)nc(N)c1-c1ccc(Cl)cc1 [PYR, pyrimethamine]
IC50 [1]: > 10000 nM

C[C@H]1CCC[C@H](C[C@H]2Cc3cc(O)cc(O)c3C(=O)O2)O1 [cladosporin]
IC50 [2]: 18.4 µM
IC50 [3]: > 20 µM
IC50 [4]: 61 nM
IC50 [5]: 7.92 µM
